Experimental data: patent EP0376166A1, “Condensed quinoline system compound and process of preparation thereof” (MECT CORPORATION, priority 1988, dated 1990)

Columns and labels:
[1] = tested on: P-388; test: Prolongation of life span in P-388 implanted mice; format: in vivo, CDF mouse; conditions: for cure: cured mice per group of 6; for response vs control in vivo at 3.12 mg/kg: dosage 3.12 mg/kg; for response vs control in vivo at 6.25 mg/kg: dosage 6.25 mg/kg
Method: Animal used: CDF mouse (6 mice/group) Tumor: P-388 Number of implanted cells: 10⁶ cells/mouse Implanted site: i.p. Day of administration: Day 1 and Day 5 Dosage: LD₅₀ or 400 mg/kg/day at the maximum

[2] = tested on: KB Cell; test: Inhibition of multiplication (growth) of KB cells, in vitro; format: cell-based, human; conditions: concentration for 50% growth inhibition vs control; for IC50: Homo sapiens, 72 h, compound added Day 1, cells counted Day 4, read-out: Conc.(ED50)
Method: KB cells, carcinomatous cell tumors, were transferred to in vitro floatation incubator systems, and added respectively with compounds of Examples 1 to 33. The results of cultivation added with these compounds were compared with the results of the control which was not added with any compound.
Cell used: KB Cell (Originating from human mouth epidermal cancer) Culture medium: Eagles minimal essential medium (MEM) supplemented with 10% calf serum Cultivation: 37°C carbon dioxide gas incubator (5% CO₂)
Day 0: KB cells were diluted in the culture medium to adjust the KB cell density to 2 x 10⁴/ml. Three ml of the cell suspension was inoculated in each of 60 mm plastic dishes. Two dishes per standard dosage were used. Day 1: Test compound was added to the medium so that the final concentrations were set to 100, 30, 10, 3 and 1 µg/ml. Day 4: Cells were scraped off from the dish using trypsin, and the cell number was countered using a Corter counter.
In generally accordance with the stipulations set forth by the National Cancer Institute (NCI), U.S.A., the concentration of compound necessary for exerting 50% growth inhibition (ED₅₀) compared to the control was determined. A compound was judged as effective when ED₅₀ was less than 4 µg/ml.

[3] = P388, ip, T/C %, dosage 50 mg/kg, Day 1 and Day 5, P-388 10⁶ cells/mouse i.p., read-out: Ratio of Life Prolongation (%)
[4] = P388, ip, T/C %, dosage 100 mg/kg, Day 1 and Day 5, P-388 10⁶ cells/mouse i.p., read-out: Ratio of Life Prolongation (%)
[5] = P388, ip, T/C %, dosage 200 mg/kg, Day 1 and Day 5, P-388 10⁶ cells/mouse i.p., read-out: Ratio of Life Prolongation (%)
[6] = P388, ip, T/C %, dosage 400 mg/kg, Day 1 and Day 5, P-388 10⁶ cells/mouse i.p., read-out: Ratio of Life Prolongation (%)
[7] = P388, ip, T/C %, dosage 12.5 mg/kg, Day 1 and Day 5, P-388 10⁶ cells/mouse i.p., read-out: Ratio of Life Prolongation (%)
[8] = P388, ip, T/C %, dosage 25 mg/kg, Day 1 and Day 5, P-388 10⁶ cells/mouse i.p., read-out: Ratio of Life Prolongation (%)
[9] = P388, ip, T/C %, Day 1 and Day 5, P-388 10⁶ cells/mouse i.p., read-out: Ratio of Life Prolongation (%)

IC50 [2] [µg/mL]	Molecule	response vs control in vivo at 50 mg/kg [1, 3] [%]	response vs control in vivo at 100 mg/kg [1, 4] [%]	response vs control in vivo at 200 mg/kg [1, 5] [%]	response vs control in vivo at 12.5 mg/kg [1, 7] [%]	response vs control in vivo at 25 mg/kg [1, 8] [%]	further results
< 0.3	COc1cc(NS(C)(=O)=O)ccc1Nc1c2c(nc3c(C)cccc13)-c1c(C)cccc1C2 [Compound 1, 6-4-(methanesulfonamide-2-methoxyanilino)-1,10-dimethylindeno[3,2-b]quinoline]	210	290	240			cure ([1]; dosage 100 mg/kg): 1/6; cure ([1]; dosage 200 mg/kg): 1/6
< 0.3	COc1cc(NS(C)(=O)=O)ccc1Nc1c2c(nc3c(C)cccc13)-c1ccccc1C2 [Compound 2]		257	99			response vs control in vivo at 400 mg/kg [1, 6]: 97%; cure ([1]; dosage 100 mg/kg): 1/6
< 0.3	COC(=O)Nc1ccc(Nc2c3c(nc4ccccc24)-c2ccccc2C3)c(OC)c1 [Compound 3]		151	97			response vs control in vivo at 400 mg/kg [1, 6]: 0%
< 0.3	CN(C)c1cc(NS(C)(=O)=O)ccc1Nc1c2c(nc3ccccc13)-c1ccccc1C2 [Compound 6, 6-(4-methanesulfonamide-2-dimethylaminoanilino)-indeno[3,2-b]quinoline]		169	247			response vs control in vivo at 400 mg/kg [1, 6]: 148%; cure ([1]; dosage 200 mg/kg): 2/6
< 0.3	COc1cc(NCS(=O)O)ccc1Nc1c2c(nc3ccccc13)-c1ccccc1C2 [Compound 7]	111	108	111			
< 0.3	COc1cc(NCC(=O)O)ccc1Nc1c2c(nc3ccccc13)-c1ccccc1C2 [Compound 8]		175	178			response vs control in vivo at 400 mg/kg [1, 6]: 155%
< 0.3	COc1cc(NS(C)(=O)=O)ccc1Nc1c2cccc(C)c2nc2c1[nH]c1ccccc12 [Compound 9]	305			198	235	response vs control in vivo at 1.56 mg/kg ([1]; P388, ip, T/C %, dosage 1.56 mg/kg, Day 1 and Day 5, P-388 10⁶ cells/mouse i.p., read-out: Ratio of Life Prolongation (%)): 131%; response vs control in vivo at 3.12 mg/kg [1, 9]: 165%; response vs control in vivo at 6.25 mg/kg [1, 9]: 168%; cure ([1]; dosage 25 mg/kg): 1/6; cure ([1]; dosage 50 mg/kg): 4/6
< 0.3	COc1cc(NS(C)(=O)=O)ccc1Nc1c2cccc(C)c2nc2c1[nH]c1cccc(C)c12 [Compound 10, 6-(4-methanesulfonamide-2-methoxyanilino)-1,10-dimethylindolo[3,2-b]quinoline]	223	260		165	203	response vs control in vivo at 3.12 mg/kg [1, 9]: 109%; response vs control in vivo at 6.25 mg/kg [1, 9]: 145%; cure ([1]; dosage 100 mg/kg): 1/6
< 0.3	COc1cc(NS(C)(=O)=O)ccc1Nc1c2cccc(C)c2nc2c1[nH]c1cc(C)ccc12 [Compound 11, 6-(4-methanesulfonamide-2-methoxyanilino)-3,10-dimethylindolo[3,2-b]quinoline]	315			315	294	cure ([1]; dosage 12.5 mg/kg): 1/6; cure ([1]; dosage 25 mg/kg): 2/6; cure ([1]; dosage 50 mg/kg): 1/6
< 0.3	COc1cc(NS(C)(=O)=O)ccc1Nc1c2ccccc2nc2c1[nH]c1cccc(C)c12 [Compound 16, 6-(4-methanesulfonamide-2-methoxyanilino)-1-methylindolo[3,2-b]quinoline]	269			240	288	cure ([1]; dosage 12.5 mg/kg): 2/6; cure ([1]; dosage 25 mg/kg): 2/6

More lines, now with the values behind:

Molecule	IC50 [2] [µg/mL]	response vs control in vivo at 50 mg/kg [1, 3] [%]	response vs control in vivo at 100 mg/kg [1, 4] [%]	response vs control in vivo at 200 mg/kg [1, 5] [%]	response vs control in vivo at 12.5 mg/kg [1, 7] [%]	response vs control in vivo at 25 mg/kg [1, 8] [%]	further results
6-(4-methanesulfonamide-anilino)-indeno[3,2-b]quinoline [Compound 5]							Ratio of Life Prolongation (%) ([1]; T/C %, dosage 25 mg/kg, Day 1 and Day 5, P-388 10⁶ cells/mouse i.p.): 140%; Ratio of Life Prolongation (%) ([1]; T/C %, dosage 50 mg/kg, Day 1 and Day 5, P-388 10⁶ cells/mouse i.p.): 135%; Ratio of Life Prolongation (%) ([1]; T/C %, dosage 100 mg/kg, Day 1 and Day 5, P-388 10⁶ cells/mouse i.p.): 163%; Ratio of Life Prolongation (%) ([1]; T/C %, dosage 200 mg/kg, Day 1 and Day 5, P-388 10⁶ cells/mouse i.p.): 172%; Ratio of Life Prolongation (%) ([1]; T/C %, dosage 400 mg/kg, Day 1 and Day 5, P-388 10⁶ cells/mouse i.p.): 165%; Conc.(ED50) ([2]; compound added Day 1, cells counted Day 4, 4320 min): < 0.3 µg/mL
COc1cc(N)ccc1Nc1c2c(nc3ccccc13)-c1ccccc1C2 [Compound 4]	< 0.3	210			134	168	
COc1cc(NS(C)(=O)=O)ccc1Nc1c2ccccc2nc2c1[nH]c1ccc(Cl)cc12 [Compound 12]	< 0.3	315			231	242	cure ([1]; dosage 25 mg/kg): 1/6; cure ([1]; dosage 50 mg/kg): 1/6
COc1cc(NS(C)(=O)=O)ccc1Nc1c2ccccc2nc2c1[nH]c1ccc(C)cc12 [Compound 13, 6-(4-methanesulfonamide-2-methoxyanilino)-2-methylindolo[3,2-b]quinoline]	< 0.3	115			189	192	
COC(=O)Nc1ccc(Nc2c3ccccc3nc3c2[nH]c2ccccc23)c(OC)c1 [Compound 14]	< 0.3	282	266	221			cure ([1]; dosage 100 mg/kg): 1/6
COc1cc(NC(C)=O)ccc1Nc1c2ccccc2nc2c1[nH]c1ccccc12 [Compound 15]	< 0.3	263	240	76			cure ([1]; dosage 100 mg/kg): 1/6
COc1cc(NS(C)(=O)=O)ccc1Nc1c2ccccc2nc2c1[nH]c1cc(C)ccc12 [Compound 17, 6-(4-methanesulfoneamide-2-methoxyanilino)-3-methylindolo[3,2-b]quinoline]	< 0.3	75			153	77	
COc1cc(NS(C)(=O)=O)ccc1Nc1c2ccccc2nc2c1[nH]c1ccc([N+](=O)[O-])cc12 [Compound 18, 6-(4-methanesulfonamide-2-methoxyanilino)-2-nitroindolo[3,2-b]quinoline]	< 0.3						cure ([1]; dosage 12.5 mg/kg): 1/6
COc1cc(NS(C)(=O)=O)ccc1Nc1c2ccccc2nc2c1[nH]c1ccc(F)cc12 [Compound 19, 2-fluoro-6-(4-methanesulfonamide-2-methoxyanilino)indolo[3,2-b]quinoline]	< 0.3				313	252	cure ([1]; dosage 12.5 mg/kg): 3/6; cure ([1]; dosage 25 mg/kg): 2/6
COc1cc(O)ccc1Nc1c2ccccc2nc2c1[nH]c1ccccc12 [Compound 20]	< 0.3				179	131	cure ([1]; dosage 25 mg/kg): 1/6
COc1cc(OC(C)=O)ccc1Nc1c2ccccc2nc2c1[nH]c1ccccc12 [Compound 21]	< 0.3	185				179	cure ([1]; dosage 50 mg/kg): 1/6
COc1cc(NS(C)(=O)=O)ccc1Nc1c2ccccc2nc2c1[nH]c1ccc(N)cc12 [Compound 22, 2-amino-6-(4-methanesulfonamide-2-methoxyanilino)indolo[3,2-b]quinoline]	< 0.3				171	200	
